Measured values as given in US8680282B2, “Cyclic inhibitors of carnitine palmitoyltransferase and treating cancer” (University Health Network, priority 2007, dated 2014).

What was measured:
Assay in all cases: Cancer cell growth inhibition, SRB assay
Format in all cases: cell-based, human
MCF-7 = system: MCF-7; parameters: Percentage of Growth Inhibition: scale not given here; conditions: SRB at Day 6; for GI50: Homo sapiens, MCF7, 144 h, MCF-7 (Breast), triplicate; for Percentage of Growth Inhibition: MCF-7, at 10 μM, NE = no activity at 10 micromolar
Description: (§1) Human cancer cells (MCF-7, H358, H460, HCT116 p53^+/+, HCT116 p53^−/−, A172, PC-3, DU-145 and SW626) were maintained in DMEM medium containing 10% Fetal Bovine Serum (FBS) (Invitrogen, Burlington, ON, Canada) and normal cells HMEC, 184A1, NHBE and PrEC were cultured in MEGM, MEGM plus transferring and cholera toxin, BEGM and PrEGM supplemented with various growth factors (Cambrex, Charles city, Iowa, USA), respectively.
(§2) Compounds of Examples S1 to S30, and 4-(carboxymethyl)-4-(6-(3-hexyloxy)phenoxy)hexanoamido)-1,1-dimethylpiperidinium 2,2,2-trifluoroactate (“Compound A”) were tested in this example. Each of the tested compounds was dissolved in DMSO and further diluted in cell culture medium for the experiments performed. Cells were seeded into 96-well plates with 1,500-5,000 cells/well according to cell growth rate. After 24 h, DMEM medium containing 10% FBS were changed to DMEM containing 3% FBS for cancer cells. The compound was added into the cell culture at the indicated concentrations, and the final concentration of DMSO was adjusted to a final concentration of 0.1%. Cell viability was assessed by Sulforhodamine B (SRB) assay at Day 6.
(§3) Sulforhodamine B (SRB) (Sigma, Oakville, ON, Canada) is a water-soluble dye that binds to the basic amino acids of the cellular proteins. Thus, colorimetric measurement of the bound dye provides an estimate of the total protein mass that is related to the cell number. The cells were fixed in situ by gently aspirating off the culture media and adding 50 ul of cold 10% Tri-chloroacetic Acid (TCA) per well and incubated at 4° C. for 30-60 min. The plates were washed five times with water and allowed to air dry for 5 min. 50 ul of 0.4% (w/v) SRB dissolved in 1% (v/v) acetic acid were added into each well, plates were then incubated at RT for 30 min for staining, washed four times with 1% acetic acid to remove any unbound dye and then allowed to air dry for 5 min. Stain was solubilized with 100 ul of 10 mM Tris pH 10.5 per well. Absorbance was read at 570 nm on a spectrophotometer. GI50 (compound concentration required for 50% of growth inhibition) was calculated using GraphPad Prism 4.0 software (GraphPad Software, Inc., San Diego, Calif., USA). Growth inhibition (%) was determined as percentage of cells remaining compared to the DMSO-treated cells as control.

SW626 = system: SW626; parameters: Percentage of Growth Inhibition: scale not given here; conditions: SRB at Day 6; for GI50: Homo sapiens, 144 h, SW626 (Ovarian), triplicate; for Percentage of Growth Inhibition: SW626, at 10 μM, NE = no activity at 10 micromolar
Description: as §1, §2, §3

H358 = system: H358; parameters: Percentage of Growth Inhibition: unit not given here; conditions: SRB at Day 6; for GI50: Homo sapiens, NCI-H358, 144 h, H358 (Lung), triplicate; for Percentage of Growth Inhibition: H358, at 10 μM, NE = no activity at 10 micromolar
Description: as §1, §2, §3

COLO-205 = conditions: SRB at Day 6; for GI50: Homo sapiens, 144 h, COLO-205 (Colon), triplicate; for Percentage of Growth Inhibition: COLO-205, at 10 μM, NE = no activity at 10 micromolar
SW620 = system: SW620; parameters: Percentage of Growth Inhibition: scale not given here; conditions: SRB at Day 6; for GI50: Homo sapiens, SW-620, 144 h, SW620 (Colon), triplicate; for Percentage of Growth Inhibition: SW620, at 10 μM, NE = no activity at 10 micromolar
HCT-15 = system: HCT-15; parameters: Percentage of Growth Inhibition: scale not given here; conditions: SRB at Day 6; for GI50: Homo sapiens, 144 h, HCT-15 (Colon), triplicate; for Percentage of Growth Inhibition: HCT-15, at 10 μM, NE = no activity at 10 micromolar

| SMILES | GI50 (MCF-7) [µM] | GI50 (SW626) [µM] | GI50 (H358) [µM] | GI50 (COLO-205) [µM] | GI50 (SW620) [µM] | GI50 (HCT-15) [µM] | Percentage of Growth Inhibition (MCF-7) [%] | Percentage of Growth Inhibition (H358) | Percentage of Growth Inhibition (COLO-205) [%] | Percentage of Growth Inhibition (SW620) [%] | Percentage of Growth Inhibition (HCT-15) [%] | Percentage of Growth Inhibition (SW626) [%] |
| --- | --- | --- | --- | --- | --- | --- | --- | --- | --- | --- | --- | --- |
| CCCCCCCCc1ccc(NC(=O)NC2(CC(=O)O)CC[N+](C)(C)CC2)cc1 [Example S2, 4-(Carboxymethyl)-1,1-dimethyl-4-(3-(4-octylphenyl)ureido)piperidinium 2,2,2-trifluoroacetate] | 10 | 2.5 | 3.1 | 1.3 | 2 | 3 | – | – | – | – | – | – |
| CCCCCc1ccc(S(=O)(=O)NC2(CC(=O)O)CCN(C)CC2)cc1 [Example S3, 4-(carboxymethyl)-1-methyl-4-(4-pentylphenylsulfonamido)piperidinium 2,2,2-trifluoroacetate] | – | – | – | – | – | – | 0.007318 | 0.4638 | 0.03424 | 0.03948 | 0.06515 | – |
| CCCCCc1ccc(S(=O)(=O)NC2(CC(=O)O)CC[N+](C)(C)CC2)cc1 [Example S4, 4-(Carboxymethyl)-1,1-dimethyl-4-(4-pentylphenylsulfonamido)piperidinium 2,2,2-trifluoroacetate] | – | – | – | > 50 | > 50 | > 50 | – | – | – | – | – | – |
| C[N+]1(C)CCC(CC(=O)O)(NC(=O)c2ccc(CCc3ccccc3)o2)CC1 [Example S5, 4-(Carboxymethyl)-1,1-dimethyl-4-(5-phenethylfuran-2-carboxamido)-piperidinium 2,2,2-trifluoroacetate] | – | – | – | – | – | – | 0.02312 | 0.08927 | 0.1219 | 0.05572 | – | 0.03032 |
| C[N+]1(C)CCC(CC(=O)O)(NC(=O)c2ccc(C#Cc3ccccc3)o2)CC1 [Example S6, 4-(Carboxymethyl)-1,1-dimethyl-4-(5-(phenylethynyl)furan-2-carboxamido)-piperidinium 2,2,2-trifluoroacetate] | – | – | – | – | – | – | 0.03714 | 0.1074 | 0.1543 | 0.05805 | – | 0.2084 |
| CCCCCCCCc1ccc(NS(=O)(=O)NC2(CC(=O)O)CCN(C)CC2)cc1 [Example S7, 4-(carboxymethyl)-1-methyl-4-(N-(4-octylphenyl)sulfamoylamino)-piperidinium 2,2,2-trifluoroacetate] | 27 | > 50 | 20 | 74 | > 50 | 80 | – | – | – | – | – | – |
| CCCCCCCCc1ccc(NS(=O)(=O)NC2(CC(=O)O)CC[N+](C)(C)CC2)cc1 [Example S8, 4-(carboxymethyl)-1,1-dimethyl-4-(N-(4-octylphenyl)sulfamoylamino)piperidinium 2,2,2-trifluoroacetate] | 2 | 15 | 0.9 | 5.3 | 8.4 | 9 | – | – | – | – | – | – |
| CCCCCCCCc1ccc(NC(=O)NC2(CC(=O)O)CCC[NH+](C)C2)cc1 (stereo not shown) [Example S9, 3-(Carboxymethyl)-1-methyl-3-(3-(4-octylphenyl)ureido)piperidinium 2,2,2-trifluoroacetate] | – | – | – | – | – | – | 0.02731 | – | 0.2852 | 0.04904 | – | 0.02424 |
| CCCCCCCCc1ccc(NC(=O)NC2(CC(=O)O)CCC[N+](C)(C)C2)cc1 (stereo not shown) [Example S10, 3-(carboxymethyl)-1,1-dimethyl-3-(3-(4-octylphenyl)ureido)-piperidinium 2,2,2-trifluoroacetate] | 5.1 | 2.7 | 1 | 1 | 2.5 | 16 | – | – | – | – | – | – |
| CCCCCCCCc1ccc(NS(=O)(=O)NC2(CC(=O)O)CCCN(C)C2)cc1 (stereo not shown) [Example S15, 3-(carboxymethyl)-1-methyl-3-(N-(4-octylphenyl)sulfamoylamino)-piperidinium 2,2,2-trifluoroacetate] | 15 | 33 | 12 | 21 | 27 | 32 | – | – | – | – | – | – |
| CCCCCCCCc1ccc(NS(=O)(=O)NC2(CC(=O)O)CCC[N+](C)(C)C2)cc1 (stereo not shown) [Example S16, 3-(carboxymethyl)-1,1-dimethyl-3-(N-(4-octylphenyl)sulfamoylamino)-piperidinium 2,2,2-trifluoroacetate] | 3.9 | 18 | 1.4 | 10 | 20 | 36 | – | – | – | – | – | – |
| CCCCCCCCc1ccc(NC(=O)NC2(CC(=O)O)CC[N+](C)(C)C2)cc1 (stereo not shown) [Example S18, 3-(carboxymethyl)-1,1-dimethyl-3-(3-(4-octylphenyl)ureido)-pyrrolidinium 2,2,2-trifluoroacetate] | 5.9 | 3.9 | 2.7 | 1.9 | 3.1 | 5.4 | – | – | – | – | – | – |
| CCCCCc1ccc(S(=O)(=O)NC2(CC(=O)O)CC[N+](C)(C)C2)cc1 (stereo not shown) [Example S20, 3-(carboxymethyl)-1,1-dimethyl-3-(4-pentylphenylsulfonamido)-pyrrolidinium 2,2,2-trifluoroacetate] | – | – | – | – | – | – | 0.2269 | 0.2773 | 0.3647 | 0.01263 | – | 0.07399 |
| CCCCCCCCCCc1ccc(C(=O)NC2(CC(=O)O)CCN(C)C2)cc1 (stereo not shown) [Example S21, 3-(carboxymethyl)-3-(4-decylbenzamido)-1-methylpyrrolidinium 2,2,2-trifluoroacetate] | – | – | – | – | – | – | 0.01838 | 0.6802 | 0.02151 | 0.07327 | 0.04235 | 0.154 |
| CCCCCCCCCCc1ccc(C(=O)NC2(CC(=O)O)CC[N+](C)(C)C2)cc1 (stereo not shown) [Example S22, 3-(Carboxymethyl)-3-(4-decylbenzamido)-1,1-dimethylpyrrolidinium 2,2,2-trifluoroacetate] | – | – | – | – | – | – | 0.06486 | 0.8129 | 0.08112 | 0.2089 | 0.07473 | 0.2198 |
| CCCCCCCCc1ccc(NC(=O)NC2(CC(=O)O)CNC2)cc1 [Example S23, 3-(carboxymethyl)-3-(3-(4-octylphenyl)ureido)azetidinium 2,2,2-trifluoroacetate] | 26 | 21 | 14 | 35 | 43 | 28 | – | – | – | – | – | – |
| O=C(O)CC1(NC(=O)c2ccc(C#Cc3ccccc3)o2)CNC1 [Example S26, 3-(carboxymethyl)-3-(5-(phenylethynyl)furan-2-carboxamido)-azetidinium 2,2,2-trifluoroacetate] | – | – | – | – | – | – | 0.1403 | 0.1437 | 0.1892 | 0.0551 | – | 0.07378 |
| CCCCCc1ccc(S(=O)(=O)NC2(CC(=O)O)CN(C)C2)cc1 [Example S27, 3-(carboxymethyl)-1-methyl-3-(4-pentylphenylsulfonamido)azetidinium 2,2,2-trifluoroacetate] | – | – | – | – | – | – | 0.05347 | 0.07312 | – | – | – | – |
